Measurements published in patent US3976672A, “(Hydrocarbylphenylsulfonyl)alkyltrimethylstannanes” (priority 1975, dated 1976).

Assays:
[1] = system: yellow fever mosquito, Aedes aegypti (Linnaeus); type: in vivo; conditions: 1 PPM, 72 hours
Method: Formulations were prepared by dissolving 30 mg of organotin compound of the invention in 10 ml of acetone. This solution was then diluted to 1 ppm with water. Two 25-ml aliquots were placed in test tubes to which were added 10 to 25 fourth instar larvae of the yellow fever mosquito, Aedes aegypti (Linnaeus). The tubes were held in darkness for 72 hours. At the end of this period the percent control was determined.

[2] = system: corn leaf aphids Rhopalosiphum maidis (Fitch); experiment: Aphid Contact Test; type: in vivo; conditions: 1000 PPM spray, barley, 5 days
Method: Test formulations were prepared for spraying at 1000 ppm (parts per million) concentration by dissolving them in a small amount of acetone and adding a suitable wetting agent. Typically, […] of organotin compound was dissolved (or suspended) in 10 ml of acetone, 2 drops of Triton-X100 wetting agent (octylphenoxy polyethoxy ethanol with 9-10 mole percent of polyethylene oxide) were added and this was suspended in 300 ml of water make a 6000 ppm suspension. An aliquot was then further diluted with distilled water to 1000 ppm concentration of organotin compound.
Eight to ten day old barley seedlings, grown ten plants each in a 12 oz. cup, were infested with corn leaf aphids Rhopalosiphum maidis (Fitch), two days prior to treatment. Two pots were treated with each formulation by spraying with a spray atomizer while the plants were rotating on a turntable. Following treatment, the plants were held for 5 days in the greenhouse. At the end of this period, the percent control of the aphids was estimated based on the reduction of the population density as compared to untreated plants used as controls.

[3] = system: adult mites, urticae Koch; experiment: Mite One-Day Residual Test (Example 8); type: in vivo; conditions: 500 PPM, cotton, six days after infestation; 8640 min
Method: Test compounds were prepared as in B, the Aphid Contact Test, above but were further diluted to 500 ppm with water.
Cotton, in the second primary leaf stage grown in twelve ounce cups under greenhouse conditions at 70°-75° F., was used in the test.
one plant (two primary leaves) in one pot was used for each replicate; two replicates were used for each concentration of organotin compound tested.
The plants were sprayed with the dispersions using a small spray atomizer to throughly drench the foliage.
One day following treatment, a circle of tree tanglefoot was placed on the upper surface of the treated leaves and adult mites, urticae Koch, were transferred into this confinement.
Six days following infestation with mites, the plants were examined for adult live mites remaining on the leaves. On an estimation basis in comparison with the number of living mites on the control plants, the percent control was determined.

[4] = system: tobacco bud worm, Heliothis virescens (Fabricius); experiment: Tobacco Bud Worm Diet Test; type: in vivo; conditions: 1000 PPM, one week, Abbott-adjusted, 10080 min
Method: Test formulations were prepared at 1000 ppm as in B, the Aphid Contact Test, above. Two-tenths ml of the diluted formulations was pipetted onto the surface of 5 grams of a synthetic diet mixture held in partially filled cells of a plastic jelly tray. Five cells were treated with each chemical dilution. The diet mixture was a modified Vanderzant diet consisting of wheat germ, soy flour, agar, sugar, salts, vitamins, preservatives and water. The jelly trays had fifty cavities per sheet, each cavity being approximately 2.5 × 4.0 × 1.5 cm.
Following treatment, a third or early fourth instar larva of the tobacco bud worm, Heliothis virescens (Fabricius), was placed in each cell. The trays were then covered with a plastic film plus a sheet of rigid plastic and were held in an incubator at 80° F.
At the end of one week, the trays were examined and the percent control was determined, adjusted for any natural mortality in the controls by Abbott's formula. The trays were held an additional week and any abnormalities in the development of the survivors was noted.
(§1) F. Abbott's Formula: [formula]

[5] = system: cotton boll weevils, Anthonomous grandis Boheman; experiment: Cotton Boll Weevil Test; type: in vivo; conditions: for % Control Cotton Boll Weevil: 1000 PPM, cotton seedlings, five days, Abbott-corrected, 7200 min; for Boll Weevil % Feeding Reduced on Cotton: 1000 ppm, visual comparison of feeding damage
Method: Formulations were prepared at 1000 ppm as in B, the Aphid Contact Test, above. Cotton seedlings 12 to 14 days old grown in 12 oz cups were used. Two pots were treated with each formulation by spraying with a spray atomizer while rotating the pots on a turntable. Five adult cotton boll weevils, Anthonomous grandis Boheman, were placed in each pot following treatment and were caged by covering the pots with an inverted 16 oz styrofoam cup with small perforations punched in the bottom. The surviving weevils were counted after five days in the greenhouse to determine the percent control, corrected for any natural mortality in the control plants by Abbott's formula. The percent reduction in feeding was estimated by visual comparison of the feeding damage to the treated plants with the control (untreated) plants.
as §1

[6] = Hydrolysis in humid air (81% humidity chamber); type: physicochemical
Source text: A. The compound subjected to humid air was a typical Peterson compound, phenylsulfonylmethyltrimethylstannane, [formula] A 5 gal. jar was set on its side on a wooden support and contained a wire mesh screen to support samples in test over a mixture of 152 g of (NH4)2 SO4 in 168 g of H2 O. An excess of (NH4)2 SO4 in contact with a saturated aqueous solution of (NH4)2 SO4 gives 81% humidity in a closed space.^1 The following samples of this Peterson compound were weighted into 40 mm O.D. petri dishes (minus cover) of 8 mm depth and the dishes placed into the humidity chamber, and the chamber was then closed: No. 15 dish 0.2186 g; No. 34 dish 0.2006 g. Before the samples were removed from the balance, a solid crust began forming on the surface of the liquid and, inside of ten minutes, covered all of the liquid surface. An odor of a volatile trimethyltin compound was noted. When the samples were placed in the humidity chamber, the samples coated almost all of the surface area inside the dishes. The 5 gal. jar was set on the bench under normal laboratory lighting. The initial temperature inside the chamber was 24.5° C. Over 4 days, the temperature ranged from the initial temperature as a high to a low temperature of 18° C. The No. 15 sample was removed after 4 days. Under the surface crust, there was an oily solid. The sample was scraped with a spatula into a 2 dram sample vial. The oily solid remaining was washed into the vial with chloroform (about 0.5 to 1 ml). The chloroform was removed under a stream of nitrogen. The No. 34 sample was removed from the chamber after 7 days. The sample was completely solid and was scraped into a vial.
at 307 Hz and a broadened singlet flanked by satellites at 36.5 Hz for (CH3)3 Sn and a broadened singlet at 191 Hz for the OH.
B. A corresponding compound, closely related to the compounds of this invention, phenylsulfonylethyltrimethylstannane, [formula] was subjected to similar humidity conditions in the same equipment. […]

[7] = cited from earlier work
[8] = system: tobacco bud worm, Heliothis virescens (Fabricius); experiment: 3-day tobacco bud worm test on cotton, comparative (Table VII); type: in vivo; conditions: 6 days after spray
Method: Tesst formulations were prepared by dissolving 50 mg of organotin compound of the invention in one ml of acetone, adding one drop of Emulfor 719, a commercial surface-active dispersing agent (polyoxyethylated vegetable oil) and suspending in 50 m1 of water for a concentration of 1000 ppm (parts per million). Aliquots of the solution were further diluted with distilled water to concentrations of 100, 20 and 5 ppm.
Cotton seedlings two weeks old were used. These were grown in 12 ounce cups with two plants in each cup. The diluted formulations were applied to the seedling plants with a spray atomizer and allowed to dry. Three cups were treated with each diluted formulation. A third instar larvae of the tobacco bud worm, Heliothis virescens (Fabricius). was placed in each cup and confined by inverting a perforated 16 oz. styrofoam cup over the top. Percent control of the worms and amount of feeding damage to the plants was determined after two weeks in the greenhouse.
(§2) The 3-day tobacco bud worm test on cotton differed as follows from that set forth in Example 10. The plants used were 3 weeks old, and were covered with cheesecloth during the test. Six replicates were used for each test compound, with 1 worm per plant. The plants were infested with larva 3 days after the spray application and the recorded observations were made 6 days after the spray application.

[9] = system: adult mites, Tetranychus urticae koch; experiment: Mite one-day residual test, comparative (Table VII); type: in vivo; conditions: 3 days after loading mites, 85° F.
Method: Cotton in the second primary leaf stage, grown in twelve ounce cups under greenhouse conditions at 70°-75° F. was used in this test. One plant (two primary leaves) in one pot was used for each replicate and two replicates were used for each concentration of tin compound tested. Test formulations were prepared by dissolving 50 mg of tin compound in one ml of acetone, adding one drop of Emulfor 719, a commercial surface-activedispersing agent (polyoxyethylated vegetable oil) and suspended in 50 ml of water for concentration of 1000 ppm (parts per million). Aliquots of this solution were further diluted with distilled water to concentrations of 100, 20 and 5 ppm. The plants were sprayed with the formulations using a small spray atomizer to thoroughly drench the foliage. One day following treatment, a circle of tree tanglefoot was placed on the upper surfaces of the treated leaves and adult mites, Tetranychus urticae koch, were transferred into this confinement. Counts of these mites were made immediately following transfer and again six days later.
The mite one-day residual test differed as follows from that set forth in Example 9. The plants were held in a growth chamber maintained at 85° F., and were exposed to high intensity fluorescent lights for 14 hour days. The recorded observations were made 3 days after loading the mites.
as §2

[10] = Thermal stability on distillation; type: physicochemical; conditions: at the temperature required to distill the starting sulfone
Method: The pot residue, a black brittle glass when cooled, weighed 16.2 g. The cuts were analyzed by (glpc) gas-liquid phase chromatography using a 6 feet × 1/8 inch column packed with 10% of silicone gum rubber on silanized diatomaceous earth at a column temperature of 260° C. […] There also was a more volatile component which increased in amount in each successive cut. The latter observation accompanied by a gradual loss in vacuum is usually associated with some thermal decomposition. Cuts No. 2 and No. 3 were combined for a second distillation using a vacuum jacketed vigreaux column. One cut was obtained, b.p. 43°-125° C. […] The vigreaux column was replaced by a short-path head and a third distillation was run on the pot residue. The following cuts were taken:
A sample of Cut No. 1 was analyzed by nuclear magnetic resonance spectroscopy (NMR). […] In summary, the product could only be obtained as a mixture with the starting sulfone despite three distillation attempts to separate the mixture.

Compound	% Control Mosquito Larvae [1] [%]	% Control Aphids [2] [%]	% Control Mite One-Day Residual [3] [%]	% Control Tobacco Bud Worm [4] [%]	% Control Cotton Boll Weevil [5] [%]	Boll Weevil % Feeding Reduced on Cotton [5] [%]	further results
2-Thioacetoxyethyltri-n-butyltin	55	95	80	20	40	90	
[CH3][Sn]([CH3])([CH3])[CH2]S(=O)(=O)c1ccccc1 [trimethylphenylsulfonylmethylstannane, phenylsulfonylmethyltrimethylstannane]							hydrolysis in humid air (NMR) ([6]; 81% humidity, 18-24.5° C., 4 days and 7 days): no unreacted starting Peterson compound
CCC[CH2][Sn]([CH2]CCC)([CH2]CCC)[CH2]S(=O)(=O)c1ccccc1 [[(Phenylsulfonyl)methyl]tributyltin]							reactivity toward carbon dioxide and oxygen ([7]; room temperature): unreactive toward carbon dioxide and oxygen at room temperature; decomposition to phenyl methyl sulfone and tributyltin oxide on exposure of a thin layer to air ([7]; within four days, 5760 min): ca. 50%
C[CH](S(=O)(=O)c1ccc(C(C)(C)C)cc1)[Sn]([CH3])([CH3])[CH3] (stereo not drawn) [1-[p-t-butylphenylsulfonyl]ethyltrimethylstannane]							hydrolysis deficiencies ([6]; comparison with the Peterson compound): suffers from the same hydrolysis deficiencies as does the Peterson compound
[CH3][Sn]([CH3])([CH3])[OH] [trimethyltin hydroxide]							Tobacco Bud Worm % Control ([8]; 0.15 millimoles/liter): 16%; Tobacco Bud Worm % Feeding Reduced ([8]; 0.15 millimoles/liter): 50%; Tobacco Bud Worm % Control ([8]; 0.3 millimoles/liter): 16%; Tobacco Bud Worm % Feeding Reduced ([8]; 0.3 millimoles/liter): 69%; Tobacco Bud Worm % Control ([8]; 0.6 millimoles/liter): 66%; Tobacco Bud Worm % Feeding Reduced ([8]; 0.6 millimoles/liter): 81%; Mite One-Day Residual % Control ([9]; 0.15 millimoles/liter): 7%; Mite One-Day Residual % Control ([9]; 0.3 millimoles/liter): 34%; Mite One-Day Residual % Control ([9]; 0.6 millimoles/liter): 9%
[CH3][Sn]([CH3])([CH3])[CH2]CS(=O)(=O)c1ccccc1 [trimethylphenylsulfonylethylstannane, phenylsulfonylethyltrimethylstannane]							hydrolysis in humid air (infrared, NMR) ([6]; 81% humidity, 27° C./room temperature, 4 days and 2 weeks): not subject to hydrolysis under the stated conditions
CC(C)(C)c1ccc(S(=O)(=O)[CH2][Sn]([CH3])([CH3])[CH3])cc1 [4-t-butylphenylsulfonylmethyltrimethylstannane]							thermal instability [10]: thermal instability of the product at the temperature required to distill the starting sulfone
Trimethyltin p-toluenesulfinate	0	98	100	100	100	100	
2-(p-dodecylphenylsulfonyl)ethyltrimethylstannane [Compound 11]	100	90	100	100	100	50	
